Drawing on ChEMBL document CHEMBL1131407, “Synthesis and metabotropic glutamate receptor activity of a 2-aminobicyclo[3.2.0]heptane-2,5-dicarboxylic acid, a molecule possessing an extended glutamate conformation” (Bioorg Med Chem Lett, 1998), this text covers Max agonist activity for one molecule.

Assay [1] has as its target Metabotropic glutamate receptor 1 (Homo sapiens) (UniProt Q13255). In words: Compound (300 uM) was evaluated for percentage agonist activity against human mGluR1a expressed in chinese hamster ovary cells. Format: functional, cell-based.
Assay [2] addresses Metabotropic glutamate receptor 6 (Homo sapiens) (UniProt O15303). In words: Compound (300 uM) was evaluated for percentage agonist activity against human mGluR6 expressed in chinese hamster ovary cells. It counts as functional, cell-based.

Metabotropic glutamate receptor 1 (Homo sapiens), sequence (Q13255 19-1194 limits assumed): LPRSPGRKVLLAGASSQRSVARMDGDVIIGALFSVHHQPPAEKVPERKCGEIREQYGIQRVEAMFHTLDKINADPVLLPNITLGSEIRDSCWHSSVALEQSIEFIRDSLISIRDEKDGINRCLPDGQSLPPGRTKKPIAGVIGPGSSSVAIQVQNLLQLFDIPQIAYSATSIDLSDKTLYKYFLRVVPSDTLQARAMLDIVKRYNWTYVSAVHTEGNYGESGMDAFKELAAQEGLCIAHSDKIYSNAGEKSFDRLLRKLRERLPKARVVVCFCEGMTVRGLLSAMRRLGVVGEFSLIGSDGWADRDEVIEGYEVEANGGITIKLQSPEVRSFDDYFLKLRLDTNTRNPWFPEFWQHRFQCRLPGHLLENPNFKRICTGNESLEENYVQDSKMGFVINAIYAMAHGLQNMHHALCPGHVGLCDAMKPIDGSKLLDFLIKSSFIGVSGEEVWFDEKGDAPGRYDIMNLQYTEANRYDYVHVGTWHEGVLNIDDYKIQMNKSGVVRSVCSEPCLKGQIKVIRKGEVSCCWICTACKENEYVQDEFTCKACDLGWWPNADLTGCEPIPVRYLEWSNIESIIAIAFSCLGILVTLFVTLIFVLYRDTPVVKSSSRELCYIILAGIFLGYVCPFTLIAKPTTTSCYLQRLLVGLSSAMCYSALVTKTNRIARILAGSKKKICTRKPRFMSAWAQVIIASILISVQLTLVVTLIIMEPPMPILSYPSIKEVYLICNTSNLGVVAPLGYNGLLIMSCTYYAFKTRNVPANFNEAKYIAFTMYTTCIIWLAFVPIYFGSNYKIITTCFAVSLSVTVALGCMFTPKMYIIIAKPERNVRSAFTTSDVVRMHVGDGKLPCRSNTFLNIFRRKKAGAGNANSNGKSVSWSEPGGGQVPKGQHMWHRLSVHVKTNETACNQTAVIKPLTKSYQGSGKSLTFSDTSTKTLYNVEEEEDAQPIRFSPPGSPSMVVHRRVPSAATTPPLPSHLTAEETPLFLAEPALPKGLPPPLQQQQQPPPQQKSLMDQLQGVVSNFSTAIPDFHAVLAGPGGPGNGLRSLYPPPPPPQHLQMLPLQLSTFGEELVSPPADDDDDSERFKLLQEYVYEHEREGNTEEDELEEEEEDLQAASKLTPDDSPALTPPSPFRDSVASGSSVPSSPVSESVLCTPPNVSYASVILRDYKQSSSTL
Metabotropic glutamate receptor 6 (Homo sapiens), sequence (O15303 whole entry): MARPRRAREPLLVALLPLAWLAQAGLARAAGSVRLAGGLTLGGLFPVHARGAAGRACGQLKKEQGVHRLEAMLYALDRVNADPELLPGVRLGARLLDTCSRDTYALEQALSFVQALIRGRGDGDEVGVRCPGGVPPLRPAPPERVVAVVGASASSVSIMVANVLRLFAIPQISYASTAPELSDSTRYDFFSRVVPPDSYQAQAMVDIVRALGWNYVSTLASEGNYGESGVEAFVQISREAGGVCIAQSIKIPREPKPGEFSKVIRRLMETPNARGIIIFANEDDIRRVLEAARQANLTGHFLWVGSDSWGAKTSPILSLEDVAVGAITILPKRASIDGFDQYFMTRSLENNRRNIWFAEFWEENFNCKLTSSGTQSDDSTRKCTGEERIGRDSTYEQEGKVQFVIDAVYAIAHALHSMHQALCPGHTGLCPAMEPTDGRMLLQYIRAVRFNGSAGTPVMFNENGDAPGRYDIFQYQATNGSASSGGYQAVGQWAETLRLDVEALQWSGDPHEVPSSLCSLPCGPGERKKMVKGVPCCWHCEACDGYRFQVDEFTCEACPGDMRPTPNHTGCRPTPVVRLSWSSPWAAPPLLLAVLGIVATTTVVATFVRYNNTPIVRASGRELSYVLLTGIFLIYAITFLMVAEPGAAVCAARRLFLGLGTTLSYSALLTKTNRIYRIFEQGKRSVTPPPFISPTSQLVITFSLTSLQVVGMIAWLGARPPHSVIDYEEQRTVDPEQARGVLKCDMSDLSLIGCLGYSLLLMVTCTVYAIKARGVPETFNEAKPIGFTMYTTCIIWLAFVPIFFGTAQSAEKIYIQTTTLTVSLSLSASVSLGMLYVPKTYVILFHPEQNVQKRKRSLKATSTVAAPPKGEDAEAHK

In the case of `N[C@@]1(C(=O)O)CCC2C[C@H](C(=O)O)C21` (some centres not stated), the figures for the Max agonist activity in assay [1] and in assay [2] were 16% and 20%, respectively.
